# Assay results published in patent publication US20230404075A1, “RHIZOBIA SYMBIOSIS PROMOTING AGENT AND SYMBIOSIS PROMOTION METHOD” (TOYOTA JIDOSHA KABUSHIKI KAISHA, priority 2020, published 2023).
# Columns and labels:
# [1] = test system: soybean (Glycine max cv. Enrei); assay: Biomass production and root nodule formation in soybean inoculated with rhizobia (Bradyrhizobium japonicum); assay type: in vivo; settings: 100 μM, vs Non-addition (control), Dunnett p<0.01, n=8
# Experimental: In this Example, first, seeds of the soybean (Glycine max cv. Enrei) were placed on wet Kimwipes® for three to four days to germinate and then transferred to pots containing vermiculite (about 1.1 L) and grown for about three days in a plant incubator (28° C.; 16 hr light/8 hr dark). Next, a non-addition plot was prepared by adding rhizobia (Bradyrhizobium japonicum; OD600=0.1; 1 mL) to 50 ml of B&D medium. An addition plot was prepared by adding ferulic acid (final concentration: 100 μM) to 50 mL of B&D medium containing rhizobia. They were inoculated into the individual soybean plants. Soybean plants grown in the incubator for one week and two weeks were dug up from the pots, and their growth (aerial part length, underground part length, number of leaves) and number of root nodules were measured.
# In FIGS. 4 and 5, error bars in the graphs represent standard errors, and asterisks (**) indicate data with a significant difference (Dunnett method: p<0.01; n=8) compared to Non-addition (control).
# [2] = test system: Miyakogusa (Lotus japonicus); assay: Root nodule formation (number of infection threads, number of root nodules) in Miyakogusa inoculated with DsRED gene-bearing rhizobium; assay type: in vivo; settings: final concentration 10 μM or 100 μM, vs Non-addition (control)
# Experimental: First, caffeic acid (Caffeic Acid, CAS RN: 331-39-5 C0002, Tokyo Chemical Industry Co., Ltd.) was dissolved in ethanol, thereby preparing a 100 mM stock solution. Next, about 300 mL of vermiculite was added to pots, entirely moistened with water, and then sterilized in an autoclave. Miyakogusa (Lotus japonicus) three to four days after sowing was transplanted into the pots, and 50 mL of B&D liquid medium (Broughton and Dilworth, 1971) containing a DsRED gene-bearing rhizobium (OD600=[…]; 1 mL) and caffeic acid (final concentration: 10 μM or 100 μM) was added.
# Plants inoculated with the rhizobium were grown in an incubator (26° C.; 16 hr light/8 hr dark). The plants were dug up from the soil after one week and two weeks, and the number of infection threads and the number of root nodules were counted under a fluorescent stereomicroscope.
# In FIG. 1, error bars in the graphs represent standard errors, and asterisks (*) indicate data with a significant difference (Dunnett method: p<0.05; n=10) compared to Non-addition (control).
# [3] = after two weeks, Dunnett p<0.05, n=10
SMILES,number of root nodules ([1]; soybean grown for one week),aerial part length ([1]; soybean grown for two weeks),number of root nodules ([1]; soybean grown for two weeks),number of infection threads ([2]; after two weeks),"number of root nodules [2, 3]",number of root nodules ([2]; after one week),"number of infection threads ([2]; after one week, Dunnett p<0.05, n=10)"
"COc1cc(/C=C/C(=O)O)ccc1O [ferulic acid, 3-methoxy-4-hydroxycinnamic acid]",significantly increased,significantly increased,significantly increased,significant increases,significant increases,–,–
"COc1cc(/C=C/C(=O)O)cc(OC)c1O [sinapinic acid, 3,5-Dimethoxy-4-hydroxycinnamic Acid]",–,–,–,significant increase,–,significant increase,–
O=C(O)/C=C/c1ccc(O)c(O)c1 [caffeic acid],–,–,–,–,tendency for the number of root nodules to increase,–,significant increase
